± gives the uncertainty stated by the source.
Assay: xn = mol fraction of the nth substance listed

CCCCCCCC/C=C\CCCCCCCC(=O)OCC(COC(=O)CCCCCCC/C=C\CCCCCCCC)OC(=O)CCCCCCC/C=C\CCCCCCCC + Cc1ccccc1
viscosity [mPa·s], 101.33 kPa
Settings	x1 = 0.000651	x1 = 0.001141	x1 = 0.003237	x1 = 0.006694	x1 = 0.009965	x1 = 0.015	x1 = 0.01736	x1 = 0.02174	x1 = 0.03032	x1 = 0.04061
293.15 K	0.6007 ± 0.016	0.6111 ± 0.016	0.6517 ± 0.017	0.7201 ± 0.019	0.7951 ± 0.02	0.9362 ± 0.023	0.971 ± 0.024	1.073 ± 0.026	1.306 ± 0.031	1.616 ± 0.038
298.15 K	0.5652 ± 0.015	0.5749 ± 0.016	0.6124 ± 0.016	0.6756 ± 0.018	0.7447 ± 0.019	0.8679 ± 0.022	0.9064 ± 0.023	0.9993 ± 0.025	1.212 ± 0.029	1.493 ± 0.035
303.15 K	0.5329 ± 0.015	0.5419 ± 0.015	0.5768 ± 0.016	0.6355 ± 0.017	0.6992 ± 0.018	0.8126 ± 0.021	0.8482 ± 0.022	0.9337 ± 0.023	1.129 ± 0.028	1.385 ± 0.033
308.15 K	0.5016 ± 0.014	0.5101 ± 0.014	0.5425 ± 0.015	0.5965 ± 0.016	0.6557 ± 0.017	0.7602 ± 0.02	0.793 ± 0.02	0.871 ± 0.022	1.051 ± 0.026	1.284 ± 0.031
313.15 K	0.4748 ± 0.013	0.4827 ± 0.014	0.513 ± 0.014	0.5635 ± 0.015	0.6185 ± 0.017	0.7155 ± 0.019	0.7459 ± 0.019	0.8182 ± 0.021	0.9851 ± 0.025	1.198 ± 0.029

O=S(Cl)Cl + Cc1ccccc1
298.15 K, 101 kPa
Settings	viscosity [mPa·s]
x1 = 0.261	0.5832 ± 0.015
x1 = 0.426	0.6019 ± 0.016
x1 = 0.559	0.6139 ± 0.016
x1 = 0.72	0.6223 ± 0.016
x1 = 0.802	0.625 ± 0.016
x1 = 0.923	0.6236 ± 0.016

CC(=O)c1ccccc1 + ClC(Cl)Cl
298.15 K, 101 kPa
Settings	viscosity [mPa·s]
x1 = 0.0992	0.655 ± 0.017
x1 = 0.337	0.915 ± 0.024
x1 = 0.501	1.107 ± 0.029
x1 = 0.7125	1.352 ± 0.036
x1 = 0.8875	1.53 ± 0.04

CCCCCCCC/C=C\CCCCCCCC(=O)OCC(COC(=O)CCCCCCC/C=C\CCCCCCCC)OC(=O)CCCCCCC/C=C\CCCCCCCC + ClC(Cl)Cl
viscosity [mPa·s], 101.33 kPa
Settings	x1 = 0.000728	x1 = 0.000907	x1 = 0.00244	x1 = 0.004913	x1 = 0.007824	x1 = 0.01322	x1 = 0.01672	x1 = 0.03078
293.15 K	0.5839 ± 0.016	0.5875 ± 0.016	0.6352 ± 0.017	0.695 ± 0.018	0.8133 ± 0.021	1.032 ± 0.026	1.109 ± 0.028	1.733 ± 0.041
298.15 K	0.5545 ± 0.015	0.5581 ± 0.015	0.603 ± 0.016	0.6576 ± 0.018	0.7684 ± 0.02	0.9701 ± 0.024	1.042 ± 0.026	1.585 ± 0.038
303.15 K	0.5275 ± 0.015	0.5306 ± 0.015	0.5725 ± 0.016	0.6237 ± 0.017	0.727 ± 0.019	0.9137 ± 0.023	0.9804 ± 0.025	1.474 ± 0.036

CC(=O)c1ccccc1 + ClCCCl
298.15 K, 101 kPa
Settings	viscosity [mPa·s]
x2 = 0.1118	1.531 ± 0.04
x2 = 0.3581	1.283 ± 0.034
x2 = 0.6942	0.993 ± 0.026

FCC(F)(F)F + FC(F)C(F)(F)F
viscosity [mPa·s], 101 kPa
Settings	x1 = 0.25	x1 = 0.5	x1 = 0.746
298.15 K	0.158 ± 0.0035	0.1739 ± 0.0038	0.1862 ± 0.0041
313.15 K	0.1263 ± 0.0029	0.1395 ± 0.0031	0.151 ± 0.0034

FCC(F)(F)F + FCF
viscosity [mPa·s], 101 kPa
Settings	x1 = 0.245	x1 = 0.518	x1 = 0.756
298.15 K	0.1241 ± 0.0028	0.1379 ± 0.0031	0.1592 ± 0.0035
313.15 K	0.1031 ± 0.0024	0.1152 ± 0.0027	0.129 ± 0.0029

CC(C)C[C@H](NC(=O)CN)C(=O)O + O
viscosity [mPa·s], 100 kPa
Settings	x1 = 0.000362	x1 = 0.000727	x1 = 0.00109	x1 = 0.00145	x1 = 0.00179	x1 = 0.002245	x1 = 0.002699
293.15 K	1.015 ± 0.12	1.029 ± 0.12	1.042 ± 0.12	1.054 ± 0.12	1.067 ± 0.12	1.083 ± 0.12	1.1 ± 0.12
298.15 K	0.9019 ± 0.12	0.9133 ± 0.12	0.9246 ± 0.12	0.9358 ± 0.12	0.9464 ± 0.12	0.9607 ± 0.12	0.9749 ± 0.12
303.15 K	0.8072 ± 0.12	0.817 ± 0.12	0.8268 ± 0.12	0.8363 ± 0.12	0.8455 ± 0.12	0.8577 ± 0.12	0.8698 ± 0.12
308.15 K	0.7277 ± 0.12	0.7362 ± 0.12	0.7447 ± 0.12	0.753 ± 0.12	0.761 ± 0.12	0.7717 ± 0.12	0.7823 ± 0.12
313.15 K	0.6605 ± 0.12	0.668 ± 0.12	0.6755 ± 0.12	0.6828 ± 0.12	0.6898 ± 0.12	0.6992 ± 0.12	0.7085 ± 0.12

C[N+](C)(C)CCO.O=C([O-])CCCC[C@@H]1SC[C@@H]2NC(=O)N[C@@H]21 + O
viscosity [mPa·s], 100 kPa
Settings	x1 = 0.0009415	x1 = 0.001329	x1 = 0.001899	x1 = 0.002797	x1 = 0.003833	x1 = 0.005474
293.15 K	1.044 ± 0.022	1.058 ± 0.022	1.079 ± 0.023	1.111 ± 0.023	1.146 ± 0.024	1.2 ± 0.025
298.15 K	0.927 ± 0.019	0.939 ± 0.02	0.957 ± 0.02	0.984 ± 0.021	1.014 ± 0.021	1.06 ± 0.022
303.15 K	0.829 ± 0.017	0.84 ± 0.018	0.855 ± 0.018	0.879 ± 0.018	0.905 ± 0.019	0.944 ± 0.02
308.15 K	0.747 ± 0.016	0.756 ± 0.016	0.77 ± 0.016	0.79 ± 0.017	0.812 ± 0.017	0.846 ± 0.018
313.15 K	0.678 ± 0.014	0.686 ± 0.014	0.698 ± 0.015	0.716 ± 0.015	0.735 ± 0.015	0.765 ± 0.016

NC(=O)c1ccccc1O + O
viscosity [mPa·s], 100 kPa
Settings	x1 = 7.39e-05	x1 = 0.000108	x1 = 0.000143	x1 = 0.00018	x1 = 0.0002156	x1 = 0.0002516
293.15 K	1.008 ± 0.06	1.011 ± 0.06	1.013 ± 0.06	1.015 ± 0.06	1.016 ± 0.06	1.017 ± 0.06
298.15 K	0.896 ± 0.06	0.899 ± 0.06	0.901 ± 0.06	0.902 ± 0.06	0.903 ± 0.06	0.904 ± 0.06
303.15 K	0.803 ± 0.06	0.805 ± 0.06	0.807 ± 0.06	0.808 ± 0.06	0.81 ± 0.06	0.811 ± 0.06
308.15 K	0.725 ± 0.06	0.727 ± 0.06	0.728 ± 0.06	0.73 ± 0.06	0.731 ± 0.06	0.732 ± 0.06
313.15 K	0.659 ± 0.06	0.661 ± 0.06	0.662 ± 0.06	0.663 ± 0.06	0.664 ± 0.06	0.665 ± 0.06

— the CheMixHub viscosity set
